Test results reported in patent US20210147455A1 (SHAANXI SYNTHETIC PHARMACEUTICAL CO., LTD., priority 2018, published 2021).

Tests used:
[1] = Hygroscopicity study (Chinese Pharmacopoeia 2015, 9103); type: physicochemical; details: for Hygroscopic weight gain: 25° C.±1° C., saturated ammonium chloride solution, 24 hours
Method: Test method: • 1. A dried glass weighing bottle with stopper (having an outer diameter of 50 mm and a height of 15 mm) was placed in a thermostatic drier (a saturated ammonium chloride solution was placed on the lower part of the thermostatic drier) at an appropriate temperature of 25° C.±1° C. on the day earlier before the test, and the weight (m1) of weighing bottle was precisely weighed. • 2. An appropriate amount of test sample was taken and spread in the weighing bottle, and the thickness of the test sample was controlled to about 1 mm, and the weight (m2) was precisely weighed. • 3. The weighing bottle was opened and was placed, together with the bottle cap, under the above mentioned constant temperature and humidity condition for 24 hours. • 4. The weighing bottle was capped and precisely weighed to obtain the weight (m3).
Description of hygroscopicity characterization and delimitation of hygroscopicity weight gain: Deliquescence: enough moisture is absorbed to form a liquid. […] Slightly hygroscopic: hygroscopic weight gain is less than 2% but not less than 0.2%. Not or hardly hygroscopic: hygroscopic weight gain is less than 0.2%.

[2] = Stability experiments under 25° C.±2° C. and 65% R.H±5% R.H; details: 25° C./65% R.H
From the text: • 1. […] The results are shown in detail in the following table.

[3] = Stability experiments under 40° C.±2° C. and 75% R.H±5% R.H (accelerated test); type: physicochemical; details: 40° C./75% R.H

Row | SMILES | Hygroscopic weight gain [1] [%] | Content ([2]; month 0) [%] | Description ([2]; month 0) | Related substance ([2]; month 0) [%] | Content ([2]; month 3) [%] | Description ([2]; month 3) | Related substance ([2]; month 3) [%] | Content ([2]; month 6) [%] | Description ([2]; month 6) | Related substance ([2]; month 6) [%] | Content ([2]; month 9) [%] | Description ([2]; month 9) | Related substance ([2]; month 9) [%] | Content ([2]; month 12) [%] | Description ([2]; month 12) | Related substance ([2]; month 12) [%] | Content ([2]; month 24) [%] | Description ([2]; month 24) | Related substance ([2]; month 24) [%] | Content ([3]; month 0) [%] | other results
1 | CC[C@@H]([C@H](C)OP(=O)(O)O)n1ncn(-c2ccc(N3CCN(c4ccc(OC[C@@H]5CO[C@@](Cn6cncn6)(c6ccc(F)cc6F)C5)cc4)CC3)cc2)c1=O.N=C(N)NCCC[C@H](N)C(=O)O [Comparative Example 5, Posaconazole Phosphate Monoarginine Salt] | 1.02 | 99.87 | White | 0.13 | 99.79 | White | 0.21 | 99.71 | White | 0.29 | 99.58 | White | 0.42 | 99.49 | White | 0.51 | 99.03 | White | 0.97 | 99.87 | Conclusion (hygroscopicity) ([1]; after 24 hours): Slight hygroscopicity; Description ([3]; month 0): White; Related substance ([3]; month 0): 0.13%; Content ([3]; month 1): 99.72%; Description ([3]; month 1): White; Related substance ([3]; month 1): 0.28%; Content ([3]; month 2): 99.60%; Description ([3]; month 2): White; Related substance ([3]; month 2): 0.40%; Content ([3]; month 3): 99.50%; Description ([3]; month 3): White; Related substance ([3]; month 3): 0.50%; Content ([3]; month 6): 99.37%; Description ([3]; month 6): White; Related substance ([3]; month 6): 0.63%
2 | CC[C@@H]([C@H](C)OP(=O)([O-])[O-])n1ncn(-c2ccc(N3CCN(c4ccc(OC[C@@H]5CO[C@@](Cn6cncn6)(c6ccc(F)cc6F)C5)cc4)CC3)cc2)c1=O.O.O.O.O.O.[Na+].[Na+] [Comparative Example 9, Posaconazole Phosphate Disodium Salt Pentahydrate] | 12.01 | 99.87 | White | 0.13 | 99.73 | White | 0.27 | 99.68 | White | 0.32 | 99.51 | White | 0.49 | 99.41 | White | 0.59 | 98.87 | White | 1.13 | 99.87 | Description ([3]; month 0): White; Related substance ([3]; month 0): 0.13%; Content ([3]; month 1): 99.72%; Description ([3]; month 1): White; Related substance ([3]; month 1): 0.28%; Content ([3]; month 2): 99.62%; Description ([3]; month 2): White; Related substance ([3]; month 2): 0.38%; Content ([3]; month 3): 99.45%; Description ([3]; month 3): White; Related substance ([3]; month 3): 0.55%; Content ([3]; month 6): 99.32%; Description ([3]; month 6): White; Related substance ([3]; month 6): 0.68%
